Assay results from US5473103A, “Biopolymers derived from hydrolyzable diacid fats” (Yissum Research Development Co. of the Hebrew University of …, priority 1993, dated 1995).
Counter-ions that a name gives are not always drawn.

Test system: esterase from porcine liver
Experiment: in vitro enzymatic degradation by esterase
Type: in vitro ADME
Conditions: 200 mg monomer, 50 units esterase, 24 hours, 37° C., 1H NMR
Procedure: The enzymatic degradation of these new monomers were compared to those of the oligomerized fatty acids. The monomers RAM, HSAM, HSAS, FAD, and FAT (200 mg) were mixed in a solution containing esterase (2 ml, containing 50 units of esterase from porcine liver, Sigma Chemical Company, St. Louis, Missouri) and were incubated for 24 hours at 37° C. The monomers or their degradation products were extracted with chloroform and analyzed by ^1 H NMR. […] The RAM, and HSAS monomers contained about 10% ricinoleic acid or 12-hydroxy stearic acid, respectively.

Structure (SMILES) | ricinoleic acid or 12-hydroxy stearic acid formed
CCCCCC[C@H](C/C=C\CCCCCCCC(=O)O)OC(=O)/C=C\C(=O)O [RAM, ricinoleic acid maleate] | about 10%
CCCCCCC(CCCCCCCCCCC(=O)O)OC(=O)CCC(=O)O (centres unmarked) [HSAS, 12-hydroxy stearic acid succinate] | about 10%
